In publication PMC9770967, “Native holdup (nHU) to measure binding affinities from cell extracts” (Science Advances, 2022):
*1 amine or outer side, *2 acyl side, *3 side chain or, on linkers, in order; H or OH if unused. Where a SMILES comes first, the peptide text is derived from it. The star is where a group is joined. X1 = O=C(CCCC[C@@H]1SC[C@@H]2NC(=O)N[C@@H]21)NCCCOCCOCCOCCCN*; Suc = O=C(CCC(=O)[*:2])[*:1]

What was measured:
[1] = molecular target: SCRIB PDZ1; settings: fragmentomic, isolated PDZ domain; cited from earlier work
Description: Supplement sciadv.ade3828_table_s1.zip/sciadv.ade3828_table_s1.xlsx, sheet "nHU-WB_SP" | column: Domain-motif fragmentomic affinities (ProfAff)

[2] = molecular target: SCRIB PDZ4; settings: fragmentomic, isolated PDZ domain; cited from earlier work
Description: (§1) Supplement sciadv.ade3828_table_s1.zip/sciadv.ade3828_table_s1.xlsx, sheet "nHU-WB_SP"

[3] = molecular target: SCRIB PDZ3; settings: fragmentomic, isolated PDZ domain; cited from earlier work
Description: as §1

[4] = molecular target: SCRIB PDZ2; settings: fragmentomic, isolated PDZ domain; cited from earlier work
Description: as §1

[5] = molecular target: isolated PDZ domain of SNX27; settings: 10-mer PBM peptide vs isolated PDZ domain, holdup; cited from earlier work
[6] = molecular target: isolated PDZ domain of SNX27; settings: calorimetry; cited from earlier work
[7] = molecular target: endogenous full-length SCRIB (Homo sapiens, UniProt Q14160); type: binding; settings: titration, Jurkat extract
endogenous full-length SCRIB, sequence (Q14160 whole entry): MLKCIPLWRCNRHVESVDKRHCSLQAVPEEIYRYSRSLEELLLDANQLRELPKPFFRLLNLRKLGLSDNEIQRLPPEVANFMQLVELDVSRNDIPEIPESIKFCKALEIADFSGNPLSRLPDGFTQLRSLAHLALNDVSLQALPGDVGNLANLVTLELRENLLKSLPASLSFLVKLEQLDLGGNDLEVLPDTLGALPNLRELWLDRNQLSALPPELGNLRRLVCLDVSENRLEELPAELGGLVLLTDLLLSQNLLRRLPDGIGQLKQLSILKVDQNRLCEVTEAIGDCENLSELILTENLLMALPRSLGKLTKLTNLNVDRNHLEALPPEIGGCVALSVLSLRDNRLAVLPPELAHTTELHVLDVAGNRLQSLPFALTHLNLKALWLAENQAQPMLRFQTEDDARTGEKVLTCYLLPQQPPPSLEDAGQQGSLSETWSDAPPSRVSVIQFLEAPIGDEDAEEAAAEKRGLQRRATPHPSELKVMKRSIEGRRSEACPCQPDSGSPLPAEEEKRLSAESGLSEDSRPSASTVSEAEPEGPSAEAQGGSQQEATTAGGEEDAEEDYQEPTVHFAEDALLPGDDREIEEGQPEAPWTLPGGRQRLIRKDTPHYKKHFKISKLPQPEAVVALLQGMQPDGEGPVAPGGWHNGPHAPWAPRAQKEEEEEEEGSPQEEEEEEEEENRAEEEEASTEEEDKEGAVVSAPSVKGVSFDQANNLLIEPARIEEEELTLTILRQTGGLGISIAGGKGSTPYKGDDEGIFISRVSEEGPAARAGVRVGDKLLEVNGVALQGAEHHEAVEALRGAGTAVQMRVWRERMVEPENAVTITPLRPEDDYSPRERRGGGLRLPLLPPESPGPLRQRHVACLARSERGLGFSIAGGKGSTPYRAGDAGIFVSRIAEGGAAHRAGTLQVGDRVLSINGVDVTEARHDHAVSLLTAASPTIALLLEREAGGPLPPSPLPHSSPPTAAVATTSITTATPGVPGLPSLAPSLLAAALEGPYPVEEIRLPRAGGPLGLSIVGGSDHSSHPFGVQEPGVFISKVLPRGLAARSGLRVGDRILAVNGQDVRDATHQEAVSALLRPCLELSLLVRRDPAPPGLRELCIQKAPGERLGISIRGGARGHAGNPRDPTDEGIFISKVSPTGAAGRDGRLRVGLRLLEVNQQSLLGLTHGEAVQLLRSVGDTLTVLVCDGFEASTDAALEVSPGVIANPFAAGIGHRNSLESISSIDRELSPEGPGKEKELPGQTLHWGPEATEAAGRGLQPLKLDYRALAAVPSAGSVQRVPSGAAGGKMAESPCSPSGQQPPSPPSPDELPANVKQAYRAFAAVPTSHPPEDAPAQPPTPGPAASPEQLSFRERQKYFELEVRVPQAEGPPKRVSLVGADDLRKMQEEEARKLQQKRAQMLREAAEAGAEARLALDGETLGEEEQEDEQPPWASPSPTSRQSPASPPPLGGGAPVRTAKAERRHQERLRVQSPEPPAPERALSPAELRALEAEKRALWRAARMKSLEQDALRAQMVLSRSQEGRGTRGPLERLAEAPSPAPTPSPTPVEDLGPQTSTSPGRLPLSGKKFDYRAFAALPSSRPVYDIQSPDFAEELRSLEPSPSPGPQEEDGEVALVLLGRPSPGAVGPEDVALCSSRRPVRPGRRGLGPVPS

[8] = molecular target: SNX27_PDZ; assay: nHU-MS, SNX27_PDZ bait, total SH-SY5Y extracts; type: binding, human; settings: for pKapp_HU_not_filtered / pKapp_significant_binders_HU: apparent; for pKapp_HU_not_filtered: Eq. 2, not filtered for significance; for pKapp_significant_binders_HU: Eq. 2, significant binders (1 σ, P < 0.05); for BI_HU / FC_HU (log2 fold change) / Ratio_HU: n = 6
Protocol: (§2) The empty His6-AviTag-MBP-TEV vector was used to produce biotinylated MBP for control experiments. Proteins were coexpressed with BirA biotin ligase (PET21a-BirA, Addgene, no. 20857) in Escherichia coli BL21(DE3) cells. At isopropyl-β-D-thiogalactopyranoside (IPTG) induction (1 mM IPTG at 18°C overnight), 50 μM biotin was added to the media. Harvested cells were lysed in a buffer containing 50 mM tris (pH 7.5), 150 to 300 mM NaCl, 50 μM biotin, 2 mM β-mercaptoethanol, cOmplete EDTA-free protease inhibitor cocktail (Roche, Basel, Switzerland), 1% Triton X-100, and trace amount of deoxyribonuclease, ribonuclease, and lysozyme. Lysates were frozen at −20°C before further purification steps. Lysates were sonicated and centrifuged for clarification. Expressed proteins were captured on in-house prepacked Ni-IDA (Protino Ni-IDA Resin, Macherey-Nagel, Duren, Germany) columns and were washed with at least 10 column volumes of cold wash buffer [50 mM tris (pH 7.5), 150 mM NaCl, and 2 mM β-mercaptoethanol] before elution with 250 mM imidazole. The Ni elution was collected directly on a preequilibrated amylose column (amylose high flow resin, New England Biolabs, Ipswich, MA). Amylose column was washed with 5 column volumes of cold wash buffer before fractionated elution in a buffer containing 25 mM Hepes (pH 7.5), 150 mM NaCl, 1 mM TCEP, 10% glycerol, 5 mM maltose, and cOmplete EDTA-free protease inhibitor cocktail. The concentration of proteins was determined by their ultraviolet absorption at 280 nm before aliquots were snap-frozen in liquid nitrogen and stored at −80°C.
(§3) For saturating streptavidin resin with biotinylated peptides or biotin, 50 μl of streptavidin resin was mixed with biotin or peptide at 40 to 60 μM concentration in 6 to 6.5 resin volume for 60 min. To saturate streptavidin resin with biotinylated proteins, 50 μl of streptavidin resin (Streptavidin Sepharose High Performance, Cytiva) was mixed with biotinylated MBP or MBP-PDZ at 40 to 50 μM concentration in 20× resin volume for 60 min. After saturation, resins were washed a single time [10 resin volume, holdup buffer: 50 mM tris (pH 7.5), 300 mM NaCl, and 1 mM TCEP, 0.22-μm filtered] and were depleted with biotin (10 resin volume, 10 min, holdup buffer supplemented with 100 μM biotin). Last, resins were washed two times (10 resin volume, holdup buffer).
(§4) For single-point nHU experiments carried out at ~10 μM bait concentration, 50 μl of saturated streptavidin resin was mixed with 200 μl of cell lysate (2 mg/ml). Titration experiments were carried out by mixing control and bait-saturated resin and keeping the total resin volume constant; e.g., ~5 μM bait concentration can be achieved by mixing 25 μl of bait-saturated streptavidin resin with 25 μl of control resin and 200 μl of cell lysate (2 mg/ml). Control and bait-saturated resins were prepared in larger amounts, and a serial dilution was prepared with these presaturated resins to achieve different resin ratios.
(§5) Unless specified elswhere, the nHU mixture was incubated at 4°C for 2 hours. After the incubation ended, the resin was separated from the supernatant by a brief centrifugation (15 s, 2000 g). Then, half of the supernatant was removed by pipetting without any delay to avoid any resin contamination; e.g., 100 μl of supernatant is collected if 200 μl of cell lysate was used as analyte. Alternatively, the supernatant can be centrifuged an additional time to clarify it further, removing any possible resin contamination. In principle, the separation of the supernatant should be as fast as possible since any delay can perturb the equilibrium. […] Alternatively, the resin can be separated from the supernatant using filter plates (e.g., various products of Millipore, Burlington, MA) or spin columns (e.g., Pierce spin cups—cellulose acetate filter from Thermo Fisher Scientific, Waltham, MA) to achieve faster separation. […]

[9] = test system: SNX27_PDZ; assay: AP-MS control pull-down on leftover resin, SNX27_PDZ bait, total SH-SY5Y extracts; type: binding, human; settings: n = 6
Protocol: (§6) Leftover beads from nHU-MS experiments were washed three times immediately after the separation of the supernatant [10 resin volume in buffer containing 50 mM tris (pH 8.5), 150 mM NaCl, 1% Triton X-100, 10× cOmplete EDTA-free protease inhibitor cocktail, 2 mM EDTA, and 1 mM TCEP]. Then, the beads were washed two times [10 resin volume buffer containing 50 mM tris (pH 8.5), 150 mM NaCl, and 1 mM TCEP]. Last, captured protein was eluted from the resin in two steps, and the eluted fractions were pooled. For each elution, the beads were incubated for 30 min with three resin volume buffer containing 20 mM tris (pH 8.5), 100 mM NaCl, 500 μM TCEP, and 8 M urea. Between each step, the beads were separated by mild centrifugation, and the supernatant was removed by gentle pipetting.
(§7) The nHU samples were precipitated with trichloroacetic acid (TCA) 20% overnight at 4°C and centrifuged at 14,000 rpm for 10 min at 4°C. The protein pellets were washed twice with 1 ml of cold acetone and air-dried. The protein extracts were solubilized in 8 M urea, reduced with 5 mM TCEP for 30 min, and alkylated with 10 mM iodoacetamide for 30 min in the dark. Double digestion was performed at 37°C with 500 ng of endoproteinase Lys-C (Wako, Richmond, USA) for 4 hours, followed by fourfold dilution and an overnight digestion with 500 ng of trypsin (Promega, Charbonnieres les Bains, France). Peptide mixtures were then desalted on a C18 spin-column and dried on a speed vacuum.
(§8) Samples were analyzed using an Ultimate 3000 nano-RSLC coupled in line via a nano-electrospray ionization source, with an LTQ-Orbitrap ELITE mass spectrometer (Thermo Fisher Scientific, San Jose, CA) or with the Orbitrap Exploris 480 mass spectrometer (Thermo Fisher Scientific, Bremen, Germany) equipped with a high field asymmetric ion mobility spectrometry (FAIMS) module. Peptide mixtures were injected in 0.1% trifluoroacetic acid on a C18 Acclaim PepMap100 trap column [75 μm inner diameter (ID) × 2 cm, 3 μm, 100 Å, Thermo Fisher Scientific] for 3 min at 5 μl/min with 2% acetonitrile (ACN) and 0.1% formic acid (FA) in H2O and then separated on a C18 Acclaim PepMap100 nano-column (75 μm ID × 50 cm, 2.6 μm, 150 Å, Thermo Fisher Scientific) at 300 nl/min and 40°C with a 90-min linear gradient from 5 to 30% buffer B (A: 0.1% FA in H2O/B: 80% ACN, 0.1% FA in H2O) and regeneration at 5% B. Spray voltage was set to 2.1 kV and heated capillary temperature was set to 280°C.
For the Orbitrap Elite, the mass spectrometer was operated in positive ionization mode in data-dependent mode with survey scans from mass/charge ratio (m/z) 350 to 1500 acquired in the Orbitrap at a resolution of 120,000 at m/z 400. […]

[10] = test system: SNX27_PDZ; assay: AP-MS control pull-down on leftover resin, SNX27_PDZ bait, total Jurkat extracts; type: binding, human
Protocol: as §6, §7, §8
For the Orbitrap Elite, the mass spectrometer was operated in positive ionization mode in data-dependent mode with survey scans from mass/charge ratio (m/z) 350 to 1500 acquired in the Orbitrap at a resolution of 120,000 at m/z 400. The 20 most intense peaks from survey scans were selected for further fragmentation in the linear ion trap with an isolation window of 2.0 Da and were fragmented by collision-induced dissociation (CID) with a normalized collision energy of 35% (TOP 20 CID method). Unassigned and single-charged states were excluded from fragmentation. The ion target value for the survey scans (in the Orbitrap) and the MS2 mode (in the linear ion trap) were set to 1E6 and 5E3, respectively, and the maximum injection time was set to 100 ms for both scan modes. Dynamic exclusion was set to 20 s after one repeat count with mass width at ±10 parts per million (ppm). […]

[11] = test system: SNX27_PDZ; assay: nHU-MS, SNX27_PDZ bait, total Jurkat extracts, series 1; type: binding, human
Protocol: as §2, §3, §4, §5

[12] = molecular target: full-length SNX27; assay: nHU-MS, recombinant full-length SNX27 bait, total Jurkat extracts; type: binding, human; settings: apparent, Fig. 4D, n = 6
Protocol: as §2, with “Amylose column was washed with 5 column volumes of cold wash buffer before fractionated elution in a buffer containing 25 mM Hepes (pH 7.5), 150 mM NaCl, 1 mM TCEP, 10% glycerol, 5 mM maltose, and cOmplete EDTA-free protease inhibitor cocktail.” left out, “−80°C. […]” for “−80°C.”

[13] = Jurkat, series 1, leftover resin, n = 6

CC(C)C[C@H](NC(=O)[C@H](CO)NC(=O)[C@H](CO)NC(=O)CCC(=O)NCCCOCCOCCOCCCNC(=O)CCCC[C@@H]1SC[C@@H]2NC(=O)N[C@@H]21)C(=O)N[C@@H](CCC(N)=O)C(=O)N[C@@H](CO)C(=O)N[C@@H](CC(C)C)C(=O)N[C@@H](CCC(=O)O)C(=O)N[C@H](C(=O)N[C@@H](CO)C(=O)N[C@H](C(=O)O)C(C)C)[C@@H](C)O [ATP2B4] ({X1-Suc}-SSLQSLETSV-OH; C-terminus assumed)
pKd_PDZ1 [1]: 5.03
pKd_PDZ4 [2]: 4.38
pKd_PDZ3 [3]: 5.11
pKd_PDZ2 [4]: 4.90
pKd (fragmentomic affinity) [5]: 5.70

CC[C@H](C)[C@H](NC(=O)CCC(=O)NCCCOCCOCCOCCCNC(=O)CCCC[C@@H]1SC[C@@H]2NC(=O)N[C@@H]21)C(=O)N[C@@H](CCC(N)=O)C(=O)N[C@@H](CCCNC(=N)N)C(=O)N[C@@H](CCC(=O)O)C(=O)N[C@@H](CC(=O)O)C(=O)N[C@@H](CCC(N)=O)C(=O)N[C@@H](CCC(=O)O)C(=O)N[C@H](C(=O)N[C@@H](C)C(=O)N[C@H](C(=O)O)C(C)C)[C@@H](C)O [DGKZ] ({X1-Suc}-IQREDQETAV-OH; C-terminus assumed)
pKd [6]: 5.7
pKd_PDZ1 [1]: 4.71
Hill coefficient ([7]; Hill equation fit, three replicates): 0.6
cooperativity [7]: negative cooperativity
pKd_PDZ4 [2]: 4.40
pKd_PDZ3 [3]: 5.05
pKd_PDZ2 [4]: 4.86
pKd (fragmentomic affinity) [5]: 6.0

ELOC: Elongin-C
pKapp_HU_not_filtered [8]: 4.672
pKapp_significant_binders_HU [8]: 4.672
BI_HU [8]: 0.3189
FC_HU (log2 fold change) [8]: -0.5541
Ratio_HU [8]: 0.6811
FC_AP (log2 fold change) [9]: -2.345
Ratio_AP [9]: 0.1968

MACROH2A1
Ratio_AP ([10]; AP-MS control pull-down, SNX27/MBP, total Jurkat extract): 19.7749
FC_AP ([10]; AP-MS control pull-down, SNX27 vs MBP, total Jurkat extract): 4.3056
BINDER_AP ([10]; AP-MS control pull-down, total Jurkat extract, BINDS / DOES NOT BIND): BINDS
Ratio_HU ([11]; nHU-MS, SNX27/MBP, total Jurkat extract, sheet "SNX27&Jurkat"): 0.6592
BI_HU ([11]; nHU-MS, SNX27 bait vs MBP control, total Jurkat extract, sheet "SNX27&Jurkat"): 0.3408
pKapp_HU_not_filtered ([11]; nHU-MS, SNX27 bait, total Jurkat extract, not filtered for significance): 4.715
FC_HU ([11]; nHU-MS, SNX27 vs MBP control, total Jurkat extract, sheet "SNX27&Jurkat"): -0.6013

SNX1: component of the SNX-BAR complex
pKapp [12]: 5.47

TXNDC12: Thioredoxin domain-containing protein 12 OS=Homo sapiens
FC_AP (log2 fold change) [10, 13]: -0.5204
Ratio_AP [10, 13]: 0.6972
BI_HU ([11]; Jurkat, series 1, n = 6): 0.2712
FC_HU (log2 fold change) ([11]; Jurkat, series 1, n = 6): -0.4564
Ratio_HU ([11]; Jurkat, series 1, n = 6): 0.7288
pKapp_significant_binders_HU ([11]; apparent, Eq. 2, Jurkat, series 1, significant binders (1 σ, P < 0.05)): 4.572

VPS26B: component of the retromer complex
pKapp [12]: 5.23

VTN: Vitronectin
pKapp_HU_not_filtered [8]: 4.715
pKapp_significant_binders_HU [8]: 4.715
BI_HU [8]: 0.3408
FC_HU (log2 fold change) [8]: -0.6012
Ratio_HU [8]: 0.6592
FC_AP (log2 fold change) [9]: 0.6536
Ratio_AP [9]: 1.573
